# Measurements as given in patent US9781930B2, “3′-substituted-abscisic acid derivatives” (Valent BioSciences Corporation, priority 2014, dated 2017).
# What was measured:
# [1] = target: T1, (S)-ABA 8′-hydroxylase (Arabidopsis thaliana, UniProt Q9FH76); conditions: according to Ueno, et al.; cited from earlier work
# T1 sequence (Q9FH76 1-463): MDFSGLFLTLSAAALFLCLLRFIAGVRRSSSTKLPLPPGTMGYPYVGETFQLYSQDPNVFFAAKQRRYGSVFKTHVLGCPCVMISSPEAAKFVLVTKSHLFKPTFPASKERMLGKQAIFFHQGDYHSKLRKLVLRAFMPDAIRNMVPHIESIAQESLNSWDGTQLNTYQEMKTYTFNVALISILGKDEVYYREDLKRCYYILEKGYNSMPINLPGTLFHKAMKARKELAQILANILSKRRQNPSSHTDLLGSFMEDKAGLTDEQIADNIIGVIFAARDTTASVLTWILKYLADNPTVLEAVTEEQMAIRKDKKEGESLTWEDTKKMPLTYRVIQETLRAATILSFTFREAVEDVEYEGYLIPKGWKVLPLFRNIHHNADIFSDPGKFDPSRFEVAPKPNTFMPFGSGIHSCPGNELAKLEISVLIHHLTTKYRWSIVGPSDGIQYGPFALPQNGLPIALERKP
# [2] = system: rice seedling; conditions: according to Ueno, et al.; cited from earlier work
# [3] = system: Arabidopsis thaliana seed; assay: Seed germination assay for testing Examples 29-46; format: in vivo; set-up: key: + + + +: The other derivatives were scored by potency relative to S-ABA.; (S)-ABA potency = + + +.; + +: The other derivatives were scored by potency relative to S-ABA.; ++: The other derivatives were scored by potency relative to S-ABA.; +: The other derivatives were scored by potency relative to S-ABA.; −− = no effect; conditions: 0.16-40 μM in 6-well plates, 4 days after vernalization, compared with (S)-ABA
# Procedure: Seed Germination Assay for Testing Examples 29-46 To determine the germination inhibition potency of the (±)-ABA derivatives, germination assays were performed with the model plant Arabidopsis thaliana. Arabidopsis seed was sterilized by soaking in 70% ethanol solution for 5 minutes, followed by 5% sodium hypochlorite solution for 10 minutes. The seeds were then washed three times with sterile water. The test compounds were tested in germination assay at five concentrations (0.16, 0.64, 2.5, 10, and 40 μM) with (S)-ABA (0.16, 0.64 and 2.5 μM) as a control in 6-well plates. DMSO stock solutions of (S)-ABA and the derivatives at 1,000 fold of the test concentrations were prepared. The stock solutions (5 μL) of (S)-ABA and the derivatives were added to the wells in the assay plate with 0.8% agar solutions of ½ Murashige and Skoog media. Sixteen sterile seeds were placed on the solid agar medium at an appropriate spacing. The assay plates were sealed with surgical tape and wrapped in aluminum foil, and the seeds were vernalized at 4° C. for 2 days. The assay plates were incubated in a growth chamber at 22.5° C. under daily light cycles of 16 hours (30 μmol/m^2·sec) for 4 days after the vernalization. The germination inhibition potency of the derivatives was scored and compared with that of (S)-ABA. The results are summarized in Table 2 “Table 2: Arabidopsis seed germination inhibition activity of (±)-ABA derivatives.”
Structure (SMILES),activity in (S)-ABA 8′-hydroxylase inhibition assay compared to (S)-ABA [1],activity in rice seedling elongation assay compared to (S)-ABA [2],Arabidopsis seed germination inhibition potency [3]
CC1=C(C)C(O)(/C=C/C(C)=C\C(=O)O)C(C)(C)CC1=O (racemic) [(±)-3′-methyl-ABA],lower activity than (S)-ABA,equal activity to (S)-ABA,
"CC1=C(CC(C)C)C(=O)CC(C)(C)C1(O)/C=C/C(C)=C\C(=O)O (racemic) [Example 34, (2Z,4E)-5-(1-hydroxy-3-isobutyl-2,6,6-trimethyl-4-oxocyclohex-2-en-1-yl)-3-methylpenta-2,4-dienoic acid]",,,−−
"CC1=C(C(C)(C)C)C(=O)CC(C)(C)C1(O)/C=C/C(C)=C\C(=O)O (racemic) [Example 35, (2Z,4E)-5-(3-(tert-butyl)-1-hydroxy-2,6,6-trimethyl-4-oxocyclohex-2-en-1-yl)-3-methylpenta-2,4-dienoic acid]",,,−−
"CC1=C(C2(C)CC2)C(=O)CC(C)(C)C1(O)/C=C/C(C)=C\C(=O)O (racemic) [Example 36, (2Z,4E)-5-(1-hydroxy-2,6,6-trimethyl-3-(1-methylcyclopropyl)-4-oxocyclohex-2-en-1-yl)-3-methylpenta-2,4-dienoic acid]",,,−−
"CCCCCCC1=C(C)C(O)(/C=C/C(C)=C\C(=O)O)C(C)(C)CC1=O (racemic) [Example 37, (2Z,4E)-5-(3-hexyl-1-hydroxy-2,6,6-trimethyl-4-oxocyclohex-2-en-1-yl)-3-methylpenta-2,4-dienoic acid]",,,−−
"CC1=C(C2CCCC2)C(=O)CC(C)(C)C1(O)/C=C/C(C)=C\C(=O)O (racemic) [Example 42, (2Z,4E)-5-(3-cyclopentyl-1-hydroxy-2,6,6-trimethyl-4-oxocyclohex-2-en-1-yl)-3-methylpenta-2,4-dienoic acid]",,,−−
"CC1=C(c2ccccc2)C(=O)CC(C)(C)C1(O)/C=C/C(C)=C\C(=O)O (racemic) [Example 46, (2Z,4E)-5-(3-hydroxy-2,4,4-trimethyl-6-oxo-3,4,5,6-tetrahydro-[1,1′-biphenyl]-3-yl)-3-methylpenta-2,4-dienoic acid]",,,−−
